In patent US20200022964A1, “COMPOSITIONS AND METHODS FOR TREATMENT OF INFLAMMATORY AUTOIMMUNE DISEASES” (New York University, priority 2018, published 2020):

Assays:
[1] = system: NF-κB p65; settings: TNF-α 10 ng/mL; FFD 10 μM, TFD 1 μM
[2] = system: TNF-α-activated NF-κB reporter gene; assay: NF-κB luciferase reporter in control and cPLA2 knockout Raw264.7 cells; type: cell-based
Procedure: Screening FDA approved drugs in vitro. NF-κB-bla THP-1 cell line (K1662, Invitrogen) was cultured in 96-well plates and FDA approved drugs (10 μM, L1300, Selleckchem) were added and cultured overnight. Next day, cells were incubated with TNF-α (10 ng/ml, PHC3015, Invitrogen) for 6 hours and LiveBLAzer™ FRET-B/G Loading Kit with CCF2-AM (K1095, Invitrogen) was used to detect the β-lactamase activity via SpectraMax i3x system (5025027A Molecular Devices) with excitation wavelength at 409 nm and emission wavelengths at 520 nm or 470 nm. This process was performed in triplicate. Subsequently, the drugs from first screening that could inhibit TNF-α induced NF-κB activity underwent further screening by NF-κB luciferase assay. After transfection with NF-κB luciferase reporter gene and Renilla plasmids for 8 hours, cells were treated with drugs (10 μM) overnight, followed by TNF-α (10 ng/ml) stimulation for 6 hours, then bioluminescence was measured by Dual-Luciferase® Reporter Assay kit (E1910, Promega). The data were analyzed by Graphpad Prism software (GraphPad Software, San Diego, Calif.).
Knock out of cPAL2 by CRISPR-Cas9. Knockout cells were generated in accordance with a previously published protocol. gRNA was inserted into the lentiCRISPR v2 vector. Packaging the inserted vector into lentivirus was completed by co-transfecting the lentiCRISPR v2, VSVG and ΔR6.7 in 293T cells. After packaging, we transfected the virus into RAW264.7 cells over 8 hours. Puromycin (2 μg/ml) was used to select the stably transfected RAW264.7 cells

[3] = system: IκB-α; assay: Phosphorylation of IκB-α in vivo (data not shown)
[4] = system: cPLA2; settings: series of protease to cell lysate ratios
Procedure: (§1) DARTS assay. Drug affinity responsive target stability (DARTS) assay was performed based on previously reported methods^4. In brief, cell lysate was extracted by M-PER™ Mammalian Protein Extraction Reagent (78501, Thermo Fisher), briefly centrifuged, and mixed with drugs or DMSO for 1 hour on a rotator. Pronase (P5147, Sigma-Aldrich) was added in the mixture for 15 minutes at room temperature. Digestion was stopped by 10 minute incubation with protease inhibitor cocktail on ice. Samples were boiled in SDS loading buffer for SDS-PAGE and Western blot.
(§2) Site-directed mutagenesis.
(§3) Construction of plasmids. The construction of cPLA2 mutant plasmids was based on serial C-terminal and N-terminal deletion of the amino acid sequences associated with functional structure. Each plasmid carried a flag tag. The constructions were: full length cPLA2 (1-750), cPLA2 (126-750), cPLA2 (406-750), cPLA2 (1-479), and cPLA2 (1-144).

[5] = molecular target: cPLA2 (Homo sapiens, UniProt P47712); settings: 293 T cells transfected with Flag-tagged mutants
Procedure: as §1, §2, §3
Target sequence in this assay (P47712 1-479): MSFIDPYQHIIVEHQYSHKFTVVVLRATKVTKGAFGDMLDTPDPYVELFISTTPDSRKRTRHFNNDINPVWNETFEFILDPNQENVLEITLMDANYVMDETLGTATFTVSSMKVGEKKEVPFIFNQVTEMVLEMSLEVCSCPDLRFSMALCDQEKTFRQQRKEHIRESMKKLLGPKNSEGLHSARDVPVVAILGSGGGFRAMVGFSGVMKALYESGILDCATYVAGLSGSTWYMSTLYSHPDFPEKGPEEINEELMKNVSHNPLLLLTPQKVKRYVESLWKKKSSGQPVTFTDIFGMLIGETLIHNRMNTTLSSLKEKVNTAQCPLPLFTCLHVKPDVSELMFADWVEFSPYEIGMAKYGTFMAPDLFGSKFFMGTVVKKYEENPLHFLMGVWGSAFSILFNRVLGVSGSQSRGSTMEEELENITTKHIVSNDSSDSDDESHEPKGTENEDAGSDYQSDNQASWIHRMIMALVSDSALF

[6] = molecular target: cPLA2 (Homo sapiens, UniProt P47712); settings: 293 T cells transfected with Flag-tagged mutants; N-terminal C2D and CD1 deletion
Procedure: as §1, §2, §3
Target sequence in this assay (P47712 126-749): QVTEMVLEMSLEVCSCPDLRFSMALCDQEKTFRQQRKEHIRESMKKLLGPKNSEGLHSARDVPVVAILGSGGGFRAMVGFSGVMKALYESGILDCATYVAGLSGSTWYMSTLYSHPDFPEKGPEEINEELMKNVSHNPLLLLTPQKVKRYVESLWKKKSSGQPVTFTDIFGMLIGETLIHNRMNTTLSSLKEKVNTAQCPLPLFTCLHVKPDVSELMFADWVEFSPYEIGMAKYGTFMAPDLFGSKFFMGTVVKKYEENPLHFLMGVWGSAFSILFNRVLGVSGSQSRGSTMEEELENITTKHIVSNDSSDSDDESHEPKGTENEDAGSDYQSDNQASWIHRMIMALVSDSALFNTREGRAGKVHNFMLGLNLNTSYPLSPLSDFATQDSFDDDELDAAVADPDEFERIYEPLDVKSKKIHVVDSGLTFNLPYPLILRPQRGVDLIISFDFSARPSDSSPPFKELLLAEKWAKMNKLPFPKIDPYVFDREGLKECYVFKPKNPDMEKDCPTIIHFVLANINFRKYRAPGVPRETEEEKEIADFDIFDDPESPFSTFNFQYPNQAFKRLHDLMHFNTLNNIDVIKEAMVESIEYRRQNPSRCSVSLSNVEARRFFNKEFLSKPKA

[7] = molecular target: cPLA2 (Homo sapiens, UniProt P47712, S505A); settings: 293 T cells transfected with point mutant plasmid
Procedure: as §1, §2, §3

[8] = system: p38 or ERK1/2; assay: Western blot of TNF activated phosphorylation of p38 and ERK1/2 in BMDMs; type: cell-based, mice; settings: TNF-α 10 ng/mL; FFD 10 μM
Procedure: Primary bone marrow derived macrophages (BMDMs) extraction. BMDMs were isolated from C57BL/6 and TNF-tg mice. After mice were sacrificed by cervical dislocation, the tibia and femur were isolated and both ends of the bones were cut to open the medullary cavity. Bone marrow cells were collected by centrifuge at 13000 g for 90 seconds and seeded in 6-well plates. Prior to their use in experiments, M-CSF (10 ng/ml, 576406, Biolegend) was added for 6 days to the BMDM culture medium.
Western blot. After protein samples were prepared, samples were separated by SDS-PAGE and transferred to a nitrocellulose (NC) membrane (162-0115, BIO-RAD) using a wet transfer system. Membrane was blocked in 5% (w/v) non-fat milk in TBST for half an hour at room temperature, followed by incubation with appropriate primary antibody overnight at 4° C. After washing, appropriate secondary antibody was added for 1 hour at room temperature. The bands on the membrane were developed by chemiluminescent (ECL) substrate and visualized by GelDoc system.

cPLA2 (Homo sapiens, UniProt P47712, S505A), sequence (P47712 whole entry S505A): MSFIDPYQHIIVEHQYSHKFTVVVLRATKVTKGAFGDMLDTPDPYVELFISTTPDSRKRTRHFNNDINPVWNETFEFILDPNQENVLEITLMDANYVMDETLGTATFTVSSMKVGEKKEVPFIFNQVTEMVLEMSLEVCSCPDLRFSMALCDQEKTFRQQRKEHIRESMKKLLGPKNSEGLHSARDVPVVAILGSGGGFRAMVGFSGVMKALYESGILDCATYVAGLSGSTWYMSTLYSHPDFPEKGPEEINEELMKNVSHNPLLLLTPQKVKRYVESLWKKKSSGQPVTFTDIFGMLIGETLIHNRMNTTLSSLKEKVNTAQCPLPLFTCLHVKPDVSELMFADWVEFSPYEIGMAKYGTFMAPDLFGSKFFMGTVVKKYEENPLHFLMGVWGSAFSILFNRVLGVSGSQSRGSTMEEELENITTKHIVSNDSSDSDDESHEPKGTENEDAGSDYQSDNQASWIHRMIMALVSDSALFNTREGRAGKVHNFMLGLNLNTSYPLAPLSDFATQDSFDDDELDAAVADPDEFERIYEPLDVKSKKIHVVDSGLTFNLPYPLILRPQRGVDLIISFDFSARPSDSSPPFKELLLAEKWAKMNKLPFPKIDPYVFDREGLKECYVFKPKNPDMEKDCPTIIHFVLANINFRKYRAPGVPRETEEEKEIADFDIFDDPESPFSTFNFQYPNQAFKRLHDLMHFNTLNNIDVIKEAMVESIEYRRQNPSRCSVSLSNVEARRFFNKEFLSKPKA

What does the source list for `CC(C)(C(=O)O)c1ccc(C(O)CCCN2CCC(C(O)(c3ccccc3)c3ccccc3)CC2)cc1` (stereo not shown) [fexofenadine]?
TNF-α-induced nuclear translocation and DNA-binding activity of p65 [1]: inhibited; inhibition of TNF-α-activated NF-κB reporter gene in cPLA2 knockout cells ([2]; cPLA2 knockout cells): lost its inhibition; anti-TNF/NF-κB activity in cPLA2 knockout cells transfected with cPLA2 S505A ([2]; point mutant Ser-505-Ala): could not rescue; anti-TNF/NF-κB activity in cPLA2 knockout cells transfected with a cPLA2 expression plasmid ([2]; re-established expression of cPLA2): reinstated; phosphorylation of NF-κB p65 upstream mediator IκB-α in vivo [3]: inhibited; protection of cPLA2 from protease (DARTS, Western blot) [4]: protected; DARTS protective effects on mutants lacking the CD2 domain, cPLA2 (1-479) and cPLA2 (1-144) [5]: did not show any protective effects; DARTS protective effects on cPLA2 (126-750) and cPLA2(406-750) [6]: retained protective effects; DARTS protective effect on Ser-505 to Ala point mutant of cPLA2 [7]: lost its protective effect; phosphorylation of p38 or ERK1/2 [8]: did not affect
